According to patent US12029738B2, “Antiproliferative compounds and methods of use thereof” (Celgene Corporation, priority 2017, dated 2024):
pIC50: −log10 of the molar value. Entries after “also recorded” stand apart in the source; their conditions may differ. Read-outs that look alike come from different tables or passages of the source.

Columns and labels:
[1] = target: T1, CYP2B6 (Homo sapiens, UniProt P20813); assay: CYP inhibition in pooled human liver microsomes; type: in vitro ADME
T1 construct: from tissue; host or cells: pooled human liver microsomes
T1 sequence (P20813 1-491): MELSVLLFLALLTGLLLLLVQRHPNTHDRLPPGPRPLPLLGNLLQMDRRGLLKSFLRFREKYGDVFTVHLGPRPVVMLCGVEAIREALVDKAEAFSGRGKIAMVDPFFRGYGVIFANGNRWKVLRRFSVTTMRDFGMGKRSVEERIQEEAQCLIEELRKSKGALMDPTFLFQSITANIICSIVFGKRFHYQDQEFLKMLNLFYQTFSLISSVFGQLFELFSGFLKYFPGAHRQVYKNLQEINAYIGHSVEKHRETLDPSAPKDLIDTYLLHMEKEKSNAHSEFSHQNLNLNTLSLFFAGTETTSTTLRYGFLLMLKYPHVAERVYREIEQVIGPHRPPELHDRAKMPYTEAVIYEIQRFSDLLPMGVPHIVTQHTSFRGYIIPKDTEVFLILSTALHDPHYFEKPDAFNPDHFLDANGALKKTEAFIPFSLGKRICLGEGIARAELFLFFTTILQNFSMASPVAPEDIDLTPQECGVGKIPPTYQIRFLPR
Method: (§1) Methods. […] In addition, the compounds were evaluated for their potential to act as a time-dependent inhibitors at the same concentrations mentioned above. […] In addition to appropriate vehicle controls, known direct inhibitors and time-dependent inhibitors of CYP isoforms were included as positive controls. Following the incubation, concentrations of probe substrate metabolites were quantified using established LC/MS/MS methods. The extent of inhibition was expressed as the percentage of control activity.

[2] = target: T2, CYP2C19 (Homo sapiens, UniProt P33261); assay: CYP inhibition in pooled human liver microsomes; type: in vitro ADME
T2 construct: from tissue; host or cells: pooled human liver microsomes
T2 sequence (P33261 whole entry): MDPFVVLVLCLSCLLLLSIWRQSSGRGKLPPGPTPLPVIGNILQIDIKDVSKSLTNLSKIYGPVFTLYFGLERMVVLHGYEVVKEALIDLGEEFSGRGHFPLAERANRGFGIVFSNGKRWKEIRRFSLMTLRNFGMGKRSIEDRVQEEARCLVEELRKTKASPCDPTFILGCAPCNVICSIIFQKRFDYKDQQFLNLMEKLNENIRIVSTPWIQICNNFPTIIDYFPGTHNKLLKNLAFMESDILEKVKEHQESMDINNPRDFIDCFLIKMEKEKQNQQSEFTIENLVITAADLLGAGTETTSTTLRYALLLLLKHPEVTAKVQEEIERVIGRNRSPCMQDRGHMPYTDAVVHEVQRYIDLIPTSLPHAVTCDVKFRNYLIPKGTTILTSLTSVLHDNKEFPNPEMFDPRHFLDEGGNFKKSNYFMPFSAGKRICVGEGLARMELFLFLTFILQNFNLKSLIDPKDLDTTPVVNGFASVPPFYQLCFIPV
Method: as §1

[3] = test system: CYP3A4/5; assay: CYP inhibition in pooled human liver microsomes; type: in vitro ADME
Method: as §1

[4] = target: T3, CYP2C9 (Homo sapiens, UniProt P11712); assay: CYP inhibition in pooled human liver microsomes; type: in vitro ADME
T3 construct: from tissue; host or cells: pooled human liver microsomes
T3 sequence (P11712 whole entry): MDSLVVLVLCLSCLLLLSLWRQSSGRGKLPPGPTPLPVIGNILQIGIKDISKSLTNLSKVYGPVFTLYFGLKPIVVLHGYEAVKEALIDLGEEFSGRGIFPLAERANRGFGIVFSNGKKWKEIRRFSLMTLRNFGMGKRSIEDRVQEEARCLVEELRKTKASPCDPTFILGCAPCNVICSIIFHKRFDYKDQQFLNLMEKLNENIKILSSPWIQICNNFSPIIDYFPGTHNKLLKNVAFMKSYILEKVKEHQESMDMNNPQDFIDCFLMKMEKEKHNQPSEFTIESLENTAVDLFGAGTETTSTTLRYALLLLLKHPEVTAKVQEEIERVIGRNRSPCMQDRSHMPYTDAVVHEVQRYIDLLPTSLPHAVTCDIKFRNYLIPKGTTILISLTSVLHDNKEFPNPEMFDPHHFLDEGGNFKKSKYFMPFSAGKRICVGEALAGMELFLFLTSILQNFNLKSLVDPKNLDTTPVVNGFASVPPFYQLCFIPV
Method: as §1

[5] = test system: KMS34; assay: Flow cytometry proliferation/apoptosis assay (120 h); type: cell-based, human; conditions: for pIC50: Homo sapiens, KMS-34, KMS34, read-out: Antiproliferative Activity (Flow Cytometry) IC50; for induced apoptosis AUC (area under the dose response curve): KMS-34, scale 0-10000
Method: (§2) Methods. […] Using 5 mM stocks, compounds were pre-spotted into the appropriate wells of 96-well plates using a Hewlett-Packard D300 Digital Dispenser. Cells were added to 96-well plates using a Multidrop Combi Reagent Dispenser. After 5 days of treatment, flow cytometric analysis was used to determine the number of cells that were alive, dead, or apoptotic. After 5 days of treatment, cells were incubated with annexin V to stain exposed phosphatidylserine, an apoptotic cell-surface marker, and the vital dye 7-AAD, which is excluded from cells with intact cell membranes, and analyzed by flow cytometry (Attune®, Thermo Fisher). Analysis was then performed to determine the number of live cells (annexin V and 7-AAD double negative staining cells) and the percentage of apoptotic cells (annexin V positive cells) for each condition, relative to the DMSO control treated, was calculated. All described values were normalized to DMSO-only treated cells. All proliferation and apoptosis induction curves were processed and graphed as percent of control using XLFit (IDBS, Alameda, CA) and GraphPad Prism 7.03 (GraphPad Software, La Jolla, CA). The live cell count for every concentration was normalized to the DMSO control (considered as 100%) in Microsoft Excel to generate the proliferation curves. […] Similarly, for apoptosis analysis, the percentage of drug-induced apoptosis was calculated for all doses by combining both “early” (annexin V positive and 7-AAD negative) and “late” apoptosis (annexin V and 7-AAD positive) values and subtracting background values (cell treated with vehicle control DMSO). The AUC values for apoptosis curves were calculated by performing area under curve analysis on GraphPad Prism 7.03. The area under the dose-response curve (AUC) was calculated since it integrates potency and efficacy of the drugs to represent apoptosis into a single parameter. The IC50 values for Compound 2 and pomalidomide in the flow cytometry assays are presented Table 9.
(§3) The apoptosis induction effect of Compound 2 was assessed using flow cytometry after 120 h of treatment and compared with pomalidomide treatment. […] Each data point represents 2 independent experiments with at least two samples in each experiment. (Table 10).

[6] = test system: EJM; assay: as above; type: cell-based, human; conditions: for pIC50: Homo sapiens, read-out: Antiproliferative Activity (Flow Cytometry) IC50; for induced apoptosis AUC (area under the dose response curve): scale 0-10000
Method: as §2, §3

[7] = test system: ARH-77; assay: as above; type: cell-based, human; conditions: for pIC50: Homo sapiens, read-out: Antiproliferative Activity (Flow Cytometry) IC50; for induced apoptosis AUC (area under the dose response curve): scale 0-10000
Method: as §2, §3

[8] = test system: L363; assay: as above; type: cell-based, human; conditions: for pIC50: Homo sapiens, L-363, read-out: Antiproliferative Activity (Flow Cytometry) IC50; for induced apoptosis AUC (area under the dose response curve): scale 0-10000
Method: as §2, §3

[9] = test system: OPM2-P10; assay: as above; type: cell-based, human; conditions: for pIC50: Homo sapiens, read-out: Antiproliferative Activity (Flow Cytometry) IC50; for induced apoptosis AUC (area under the dose response curve): scale 0-10000
Method: as §2, §3

[10] = test system: SK-MM-2; assay: as above; type: cell-based, human; conditions: for pIC50: Homo sapiens, SK-MM-2, read-out: Antiproliferative Activity (Flow Cytometry) IC50; for induced apoptosis AUC (area under the dose response curve): SKMM-2, scale 0-10000
Method: as §2, §3

[11] = test system: U266; assay: as above; type: cell-based, human; conditions: for pIC50: Homo sapiens, U-266, read-out: Antiproliferative Activity (Flow Cytometry) IC50; for induced apoptosis AUC (area under the dose response curve): scale 0-10000
Method: as §2, §3

[12] = test system: RPMI-8226; assay: as above; type: cell-based, human; conditions: for pIC50: Homo sapiens, read-out: Antiproliferative Activity (Flow Cytometry) IC50; for induced apoptosis AUC (area under the dose response curve): scale 0-10000
Method: as §2, §3

[13] = test system: IM-9; assay: as above; type: cell-based, human; conditions: for pIC50: Homo sapiens, read-out: Antiproliferative Activity (Flow Cytometry) IC50; for induced apoptosis AUC (area under the dose response curve): scale 0-10000
Method: as §2, §3

[14] = test system: NCI-H929-1051; assay: as above; type: cell-based, human; conditions: for induced apoptosis AUC (area under the dose response curve): H929-1051, scale 0-10000; for pIC50: Homo sapiens, NCI-H929-1051, read-out: Antiproliferative Activity (Flow Cytometry) IC50
Method: as §2, §3

[15] = test system: KMS-11; assay: as above; type: cell-based, human; conditions: for pIC50: Homo sapiens, read-out: Antiproliferative Activity (Flow Cytometry) IC50; for induced apoptosis AUC (area under the dose response curve): scale 0-10000
Method: as §2, §3

[16] = test system: CAG; assay: as above; type: cell-based, human; conditions: for pIC50: Homo sapiens, read-out: Antiproliferative Activity (Flow Cytometry) IC50; for induced apoptosis AUC (area under the dose response curve): scale 0-10000
Method: as §2, §3

[17] = up to 30 μM, 30 minute preincubation with or without NADPH
[18] = up to / at 30 μM, human liver microsomes

## N#Cc1ccc(N2CCN(Cc3ccc(COc4cccc5c4CN([C@H]4CCC(=O)NC4=O)C5=O)cc3)CC2)c(F)c1 [Compound 2, (S)-4-(4-(4-(((2-(2,6-dioxopiperidin-3-yl)-1-oxoisoindolin-4-yl)oxy)methyl)benzyl)piperazin-1-yl)-3-fluorobenzonitrile]
[1]; human, microsomes
  inhibition at 30 µM: ≤ 30%
[2]
  pIC50: < 4.52
[2]; human, microsomes
  inhibition at 30 µM: 41%
[3]; human, microsomes
  pIC50: < 4.52
[3]; human, microsomes, direct inhibition of CYP3A4/5 (testosterone)
  inhibition at 30 µM: 46%
[3]; human, microsomes, inhibition of CYP3A4/5 (testosterone) activity after preincubation with NADPH
  inhibition at 30 µM: 59%
[3]; human, microsomes, inhibition of CYP3A4/5 (testosterone) activity after preincubation without NADPH
  inhibition at 30 µM: 23%
[4]; human, microsomes
  inhibition at 30 µM: ≤ 30%
[5]
  pIC50: 9.35
  induced apoptosis AUC (area under the dose response curve): 1614
[6]
  pIC50: 9.37
  induced apoptosis AUC (area under the dose response curve): 2591
[7]
  pIC50: < 5.00
  induced apoptosis AUC (area under the dose response curve): 709
[8]
  pIC50: 9.80
  induced apoptosis AUC (area under the dose response curve): 347
[9]
  pIC50: 8.74
  induced apoptosis AUC (area under the dose response curve): 1768
[10]
  pIC50: 9.09
  induced apoptosis AUC (area under the dose response curve): 3204
[11]
  pIC50: 9.72
  induced apoptosis AUC (area under the dose response curve): 927.8
[12]
  pIC50: 9.12
  induced apoptosis AUC (area under the dose response curve): 3245
[13]
  pIC50: 5.25
  induced apoptosis AUC (area under the dose response curve): 323.9
[14]
  induced apoptosis AUC (area under the dose response curve): 3968
  pIC50: 9.35
[15]
  pIC50: 8.85
  induced apoptosis AUC (area under the dose response curve): 1270
[16]
  pIC50: 9.92
  induced apoptosis AUC (area under the dose response curve): 5804

## O=C1CC[C@H](N2Cc3c(OCc4ccc(CN5CCN(c6ccc(F)cc6F)CC5)cc4)cccc3C2=O)C(=O)N1 [Compound B]
[1]; [17]
  time-dependent inhibition of CYP2B6: little to no time-dependent inhibition; also recorded: not a time-dependent inhibitor
[1]; [18]
  direct inhibition of CYP2B6: 59%
[2]; at 30 μM, human liver microsomes
  direct inhibition of CYP2C19: 45%
[2]; [17]
  time-dependent inhibition of CYP2C19: little to no time-dependent inhibition; also recorded: not a time-dependent inhibitor
[3]; 30 minute preincubation with NADPH, substrate midazolam, read-out: shifted IC50 value (with NADPH) CYP3A4/5, midazolam
  pIC50: 5.65
[3]; 30 minute preincubation with NADPH, substrate testosterone, read-out: shifted IC50 value (with NADPH) CYP3A4/5, testosterone
  pIC50: 5.71
[3]; substrate testosterone, read-out: direct inhibition IC50 CYP3A4/5 (testosterone)
  pIC50: 5.53
[3]; up to 30 μM, 30 minute preincubation
  time-dependent inhibition of CYP3A4/5 (overall finding): inhibited CYP3A4/5 in a time-dependent manner; also recorded: time-dependent inhibitor of CYP3A4/5
[3]; up to 30 μM, substrate midazolam
  direct inhibition of CYP3A4/5 (midazolam): up to 30%
[4]; [17]
  time-dependent inhibition of CYP2C9: little to no time-dependent inhibition; also recorded: not a time-dependent inhibitor
[4]; [18]
  direct inhibition of CYP2C9: 38%

## Nc1cccc2c1C(=O)N(C1CCC(=O)NC1=O)C2=O (stereo not shown) [Pomalidomide, pomalidomide]
[5]
  pIC50: < 5.00
  induced apoptosis AUC (area under the dose response curve): 429.7
[6]
  pIC50: 5.55
  induced apoptosis AUC (area under the dose response curve): 900
[7]
  pIC50: < 5.00
  induced apoptosis AUC (area under the dose response curve): 28.16
[8]
  pIC50: < 5.00
  induced apoptosis AUC (area under the dose response curve): 293
[9]
  pIC50: < 5.00
  induced apoptosis AUC (area under the dose response curve): 108.7
[10]
  pIC50: < 5.00
  induced apoptosis AUC (area under the dose response curve): 1033
[11]
  pIC50: 6.42
  induced apoptosis AUC (area under the dose response curve): 373
[12]
  pIC50: < 5.00
  induced apoptosis AUC (area under the dose response curve): 1369
[13]
  pIC50: < 5.00
  induced apoptosis AUC (area under the dose response curve): 25.4
[14]
  induced apoptosis AUC (area under the dose response curve): 423
  pIC50: 5.71
[15]
  pIC50: 5.28
  induced apoptosis AUC (area under the dose response curve): 234.4
[16]
  pIC50: 5.96
  induced apoptosis AUC (area under the dose response curve): 1561
